According to patent US20240366801A1, “HYPERPO[…] AND PRODUCT” (CAMBRIDGE ENTERPRISE LIMITED, priority 2021, published 2024):

Test system: rat liver
Assay: 13C MR spectra in rat liver after intravenous injection of hyperpolarised solution
Details: 1 ml of 42 mM solution, 9.4T MRI
Excerpt: The data was acquired in preclinical horizontal-bore 9.4T MRI system using a 10-mm diameter 13C surface coil and a series of 20-degree radiofrequency pulses applied every 2 s.

- downstream metabolites detected in 13C MR spectra: downstream metabolites could be detected
Compound: CC(O)[13C](=O)O (stereo not shown) [[1-13C]lactate, [1-13C]lactic acid]
